Results reported in patent CN106581687A, “以乳清蛋白为基质的桃柁酚抗菌纳米水凝胶及其制备方法” (Jilin University, priority 2016, dated 2017).
Values after ≈ are worked out from the molar mass of the structure shown.

System: Staphylococcus aureus (金黄色葡萄球菌), S.aureus strains ATCC 29213
Experiment: 最小抑菌浓度MIC (minimum inhibitory concentration of totarol)
Assay type: cell-based
Settings: value used for loading in the Example concerned

- MIC (Staphylococcus aureus, ATCC29213, totarol against Staphylococcus aureus): 2 mg/L (≈ 6.98 µM)
- minimum inhibitory concentration (MIC value) (totarol against Staphylococcus aureus): 4 mg/L (≈ 14 µM)
SMILES: CC(C)c1c(O)ccc2c1CC[C@H]1C(C)(C)CCC[C@]21C [桃柁酚, 桃柁酚(Totarol)]
